Reference: patent US20240059688A1, “CONOLIDINE ANALOGUES AS SELECTIVE ACKR3 MODULATORS FOR THE TREATMENT OF CANCER” (Luxembourg Institute of Health (LIH), priority 2020, published 2024)

Experiments:
ACKR3 = ACKR3 (Homo sapiens, UniProt P25106); experiment: ACKR3 β-arrestin recruitment assay (PathHunter, β-galactosidase complementation); format: cell-based; conditions: for EC50: stable human ACKR3-β-arrestin-2-CHO cells, mean ± SEM, at least two independent experiments in duplicate; for Emax: read-out: ACKR3 β-arrestin % CXCL12 Emax ± SEM
Sequence of ACKR3 (P25106 whole entry): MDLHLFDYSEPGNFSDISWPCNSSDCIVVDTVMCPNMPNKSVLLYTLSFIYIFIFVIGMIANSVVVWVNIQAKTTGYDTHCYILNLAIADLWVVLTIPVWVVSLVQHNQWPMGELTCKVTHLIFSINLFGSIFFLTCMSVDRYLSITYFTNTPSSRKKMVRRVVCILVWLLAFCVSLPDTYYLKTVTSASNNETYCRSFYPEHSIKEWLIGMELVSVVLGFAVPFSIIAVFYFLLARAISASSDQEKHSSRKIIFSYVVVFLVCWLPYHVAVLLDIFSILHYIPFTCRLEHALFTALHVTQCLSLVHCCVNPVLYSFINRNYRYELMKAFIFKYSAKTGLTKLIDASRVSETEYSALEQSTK
Description: (§1) Compounds were evaluated for agonist activity using a β-arrestin recruitment assay based on β-galactosidase complementation (PathHunter, DiscoverX). Stable human ACKR3-β-arrestin-2-CHO cells (DiscoverX) were plated into 96-well white-walled assay plates at 15,000 cells/well in Cell Plating Reagent 2 (DiscoveRx) and incubated at 37° C., 5% CO2 overnight. The next day, test compounds were prepared at 10× concentration in DPBS/1% DMSO and 10 μL was added to the cells. CXCL-12 was included as a positive agonist control. Following a 1.5 hr incubation at 37° C., 55 μL of detection reagent (prepared according to the manufacturer's specifications) was added to each well. The plate was incubated at room temperature for 1 hr, after which luminescence was measured at 1 sec/well using an EnSpire multimode plate reader (PerkinElmer). Relative luminescence units (RLU) were plotted against the log of compound concentration and data were fit to a three-parameter logistic curve to generate EC50 values (GraphPad Prism). EC50 and % Emax values are reported as means±SEM and are the result of at least two independent experiments performed in duplicate. The CXCR4 assay was run similarly except that human CXCR4-C2Cl2 cells (DiscoverX) were plated at 20,000 cells/well in Cell Plating Reagent 9. The next day, the media was removed and cells were incubated with Cell Plating Reagent 4 for 3 hrs, after which the assay was conducted as described above.

human CXCR4 = biological target: T1, human CXCR4 (Homo sapiens, UniProt P61073); experiment: CXCR4 β-arrestin recruitment assay (PathHunter); format: cell-based; conditions: human CXCR4-C2Cl2 cells, relative to CXCL-12
T1 construct: host or cells: C2C12
T1 sequence (P61073 whole entry): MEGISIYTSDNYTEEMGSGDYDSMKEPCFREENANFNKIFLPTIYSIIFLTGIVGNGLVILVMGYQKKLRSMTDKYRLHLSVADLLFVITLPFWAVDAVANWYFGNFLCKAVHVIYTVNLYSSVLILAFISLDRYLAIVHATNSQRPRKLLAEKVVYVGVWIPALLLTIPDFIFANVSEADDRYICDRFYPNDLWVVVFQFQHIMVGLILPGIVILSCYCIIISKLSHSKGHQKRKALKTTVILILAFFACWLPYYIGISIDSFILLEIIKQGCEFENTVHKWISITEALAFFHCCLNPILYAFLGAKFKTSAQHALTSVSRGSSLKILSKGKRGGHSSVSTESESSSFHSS
Description: as §1

Structure (SMILES) | EC50 (ACKR3) | CXCR4 β-arrestin % CXCL-12Emax (n = 2) (human CXCR4) | Emax (ACKR3)
CCCCCN1CCC(C(=O)c2cc3ccccc3[nH]2)CC1 [WW-19, 1H-indol-2-yl(1-pentylpiperidin-4-yl)methanone] | > 10 µM | 9% | 
CCCCCN1CCC(C(=O)c2cc3ccccc3n2CCCCC)CC1 [WW-20] | 1.77 ± 0.078 µM | 11% | 154 ± 7%
CCCCCN1CCN(Cc2cc3ccccc3[nH]2)CC1 [WW-21, 2-[(4-pentylpiperazin-1-yl)methyl]-1H-indole] | > 10 µM | 10% | 
O=C(c1cc2ccccc2[nH]1)N1CCNCC12CC2 [WW-22, 2-(4,7-diazaspiro[2.5]oct-4-ylcarbonyl)-1H-indole] | > 10 µM | 4% | 
CCCCCN1CCN(C(=O)c2cc3ccccc3[nH]2)C2(CC2)C1 [WW-23, 2-[(7-pentyl-4,7-diazaspiro[2.5]oct-4-yl)carbonyl]-1H-indole] | 3.04 ± 0.13 µM | 11% | 156 ± 11%
CCCCCN1CCN(C(=O)c2cc3ccccc3n2CCCCC)C2(CC2)C1 [WW-24, 1-pentyl-2-[(7-pentyl-4,7-diazaspiro[2.5]oct-4-yl)carbonyl]-1H-indole] | 6.05 ± 0.53 µM | 5% | 154 ± 17%
CCCCCN1CCN(C(=O)c2cc3ccccc3[nH]2)C(CC)C1 (centres unmarked) [WW-25, 2-[(2-ethyl-4-pentylpiperazin-1-yl)carbonyl]-1H-indole] | > 10 µM | 4% | 
CC(C)(C)OC(=O)N1CC[C@H](NC(=O)c2cc3ccccc3[nH]2)C1 [WW-26, Tert-butyl (3S)-3-[(1H-indol-2-ylcarbonyl)amino]pyrrolidine-1-carboxylate] | > 10 µM | 9% | 
CC(C)(C)OC(=O)N1CCCN(C(=O)c2cc3ccccc3[nH]2)CC1 [WW-27, tert-butyl 4-(1H-indol-2-ylcarbonyl)-1,4-diazepane-1-carboxylate] | > 10 µM | 4% | 
CCCCCN1CCN(C(=O)c2cc3ccccc3[nH]2)CC1 [WW-28, 2-[(4-pentylpiperazin-1-yl)carbonyl]-1H-indole] | > 10 µM | 11% | 
CCCCCN1CC[C@H](NC(=O)c2cc3ccccc3[nH]2)C1 [WW-29, N-[(3S)-1-pentylpyrrolidin-3-yl]-1H-indole-2-carboxamide] | 1.92 ± 0.056 µM | 15% | 145 ± 4%
CCCCCN1CCCN(C(=O)c2cc3ccccc3[nH]2)CC1 [WW-30, 2-[(4-pentyl-1,4-diazepan-1-yl)carbonyl]-1H-indole] | > 10 µM | 7% | 
NC1CN(C(=O)c2cc3ccccc3[nH]2)C1 [WW-31, 1-(1H-indole-2-ylcarbonyl)azetidin-3-amine] | > 10 µM | 7% | 
CCCCCNC1CN(C(=O)c2cc3ccccc3[nH]2)C1 [WW-32, 1-(1H-indole-2-ylcarbonyl)-N-pentylazetidin-3-amine] | > 10 µM | 9% | 
O=C(N[C@H]1CCN(c2nccn3cccc23)C1)c1cc2ccccc2[nH]1 [WW-33, N-[(3S)-1-pyrrolo[1,2-a]pyrazin-1-ylpyrrolidin-3-yl]-1H-indole-2-carboxamide] | 0.377 ± 0.009 µM | 6% | 150 ± 3%
CCCCCN1CC[C@H](NC(=O)c2cc3cc(OC)c(OC)c(OC)c3[nH]2)C1 [WW-43, 5,6,7-Trimethoxy-N-[(3S)-1-pentylpyrrolidin-3-yl]-1H-indole-2-carboxamide] | > 10 µM | 10% | 
CCCCCN1CC[C@H](NC(=O)c2cc3ccc(-c4ccc(F)cc4)cc3[nH]2)C1 [WW-44, 6-(4-Fluorophenyl)-N-[(3S)-1-pentylpyrrolidin-3-yl]-1H-indole-2-carboxamide] | 4.14 ± 0.11 µM | 26% | 110 ± 7%
CCCCCN1CC[C@H](NC(=O)c2cc3ccc(-c4ccc(OC)cc4)cc3[nH]2)C1 [WW-45, 6-(4-methoxyphenyl)-N-[(3S)-1-pentylpyrrolidin-3-yl]-1H-indole-2-carboxamide] | > 10 µM | 6% | 
CCCCCN1CC[C@H](NC(=O)c2cc3cccc(-c4ccc(F)cc4)c3[nH]2)C1 [WW-46, 7-(4-Fluorophenyl)-N-[(3S)-1-pentylpyrrolidin-3-yl]-1H-indole-2-carboxamide] | 0.504 ± 0.062 µM | 7% | 119 ± 8%
C/C=C1/CN(CCCCC)CC[C@H]1C(=O)c1cc2cc(C(C)=O)ccc2n1CCCCC [WW-66, 1-(2-{[(3E,4R)-3-ethylidene-1-pentylpiperidin-4-yl]carbonyl}-1-pentyl-1H-indol-5-yl)ethanone] | > 10 µM | 8% | 

More lines, now with the values ahead:

EC50 (ACKR3) | CXCR4 β-arrestin % CXCL-12Emax (n = 2) (human CXCR4) | Emax (ACKR3) | Structure (SMILES)
> 10 µM | 18% |  | CCCCCN1CC[C@H](NC(=O)c2cc3c(OC)c(OC)c(OC)cc3[nH]2)C1 [WW-47, 4,5,6-Trimethoxy-N-[(3S)-1-pentylpyrrolidin-3-yl]-1H-indole-2-carboxamide]
1.96 ± 0.027 µM | 15% | 129 ± 4% | C/C=C1/CN(CCCCC)CC[C@H]1C(=O)c1cc2cc(Cl)ccc2[nH]1 [WW-54, (5-chloro-1H-indol-2-yl)[(3E,4R)-3-ethylidene-1-pentylpiperidin-4-yl]methanone]
5 ± 0.6 µM | 10% | 90 ± 1% | C/C=C1/CN(CCCCC)CC[C@H]1C(=O)c1cc2ccc(F)cc2[nH]1 [WW-55, [(3E,4R)-3-ethylidene-1-pentylpiperidin-4-yl](6-fluoro-1H-indol-2-yl)methanone]
6.45 ± 0.72 µM | 5% | 96 ± 4% | CCCCCN1CCC(C)(C(=O)c2cc3ccccc3[nH]2)CC1 [WW-57, 1H-Indole-2-yl(4-methyl-1-pentylpiperidin-4-yl)methanone]
> 10 µM | 3% |  | C/C=C1/CN(CCCCN)CC[C@H]1C(=O)c1cc2ccccc2[nH]1 [WW-58, (3E,4R)-(3-ethylidene-1-(4-aminobutyl)piperidin-4-yl)(1H-indol-2-yl)methanone]
> 10 µM | 9% |  | C/C=C1/CN(CCCCCN)CC[C@H]1C(=O)c1cc2ccccc2[nH]1 [WW-59, (3E,4R)-(3-ethylidene-1-(5-aminopentyl)piperidin-4-yl)(1H-indol-2-yl)methanone]
> 10 µM | 11% |  | C/C=C1/CN(CCOCCN)CC[C@H]1C(=O)c1cc2ccccc2[nH]1 [WW-60, (3E,4R)-(3-ethylidene-1-(2-ethoxy-(2-aminoethyl))piperidin-4-yl)(1H-indol-2-yl)methanone]
0.527 ± 0.13 µM | 10% | 156 ± 7% | C/C=C1/CN(Cc2ccc(OC)cc2)CC[C@H]1C(O)c1cc2ccccc2n1S(=O)(=O)c1ccccc1 (stereo partly drawn) [WW-61, [(3E,4R)-3-ethylidene-1-(4-methoxybenzyl)piperidin-4-yl][1-(phenylsulfonyl)-1H-indol-2-yl]methanol]
3.04 ± 0.32 µM | 5% | 137 ± 3% | C/C=C1/CN(CCCCCC)CC[C@H]1C(=O)c1cc2ccccc2[nH]1 [WW-62, [(3E,4R)-3-ethylidene-1-hexylpiperidin-4-yl](1H-indol-2-yl)methanone]
1.78 ± 0.16 µM | 15% | 152 ± 1% | C/C=C1/CN(CCCC(C)C)CC[C@H]1C(=O)c1cc2ccccc2[nH]1 [WW-63, [(3E,4R)-3-ethylidene-1-(4-methylpentyl)piperidin-4-yl](1H-indol-2-yl)methanone]
> 10 µM | 16% |  | CCOC(=O)C(c1[nH]c2ccccc2c1C=O)C1CCN(S(=O)(=O)c2ccc(C)cc2)C/C1=N\O[Si](C)(C)C(C)(C)C (centres unmarked) [WW-64]
> 10 µM | 11% |  | CCOC(=O)C(c1[nH]c2ccccc2c1C=O)C1CCN(S(=O)(=O)c2ccc(C)cc2)C/C1=N\O (centres unmarked) [WW-65, ethyl (3-formyl-1H-indol-2-yl){(3Z)-3-(hydroxyamino)-1-[(4-methylphenyl)sulfonyl]piperidin-4-yl}acetate]
2.46 ± 0.27 µM | 12% | 135 ± 4% | C/C=C1/CN(CCCCCCC)CC[C@H]1C(=O)c1cc2ccccc2[nH]1 [WW-67, [(3E,4R)-3-ethylidene-1-heptylpiperidin-4-yl](1H-indol-2-yl)methanone]
3.61 ± 0.39 µM | 8% | 136 ± 3% | C/C=C1/CN(CC2CCCCC2)CC[C@H]1C(=O)c1cc2ccccc2[nH]1 [WW-68, [(3E,4R)-1-(cyclohexylmethyl)-3-ethylidenepiperidin-4-yl](1H-indol-2-yl)methanone]
1.68 ± 0.3 µM | 11% | 79 ± 6% | C/C=C1/CN(Cc2ccc(OC)cc2)CC[C@H]1C(O)c1cc2cc(-c3ccc(F)cc3)ccc2n1S(=O)(=O)c1ccccc1 (some centres unmarked) [WW-69]
